Experimental data published in patent US20120053218A1, “TRIAZOLE DERIVATIVES AS VASOPRESSIN-RECEPTOR INHIBITORS FOR TREATING CARDIAC INSUFFICIENCY” (BAYER PHARMA AKTIENGESELLSCHAFT, priority 2009, published 2012).

How the values were obtained:
[1] = target: T1, human V2 receptor (Homo sapiens, UniProt P30518); experiment: Cellular in vitro assay for vasopressin receptor activity (aequorin luminescence, CHO K1 cells), hV2; type: cell-based; settings: CHO cell line transfected with human V2 receptor and Gα16, agonist [Arg8]-vasopressin
T1 construct: expressed in transfected cells; host or cells: CHO K1 (ATCC), constitutively expressing modified aequorin and co-transfected with Gα16
From the text: (§1) The identification of agonists and antagonists of the V1a and V2 vasopressin receptors from humans and rats and also the quantification of the activity of the substances described here took place using recombinant cell lines. These cells derive originally from a hamster ovary epithelial cell (Chinese Hamster Ovary, CHO K1, ATCC: American Type Culture Collection, Manassas, Va. 20108, USA). The test cell lines constitutively express a modified form of the calcium-sensitive photoprotein aequorin, which, after reconstitution with the cofactor coelenterazine, emits light when there are increases in the free calcium concentration (Rizzuto R., Simpson A. W., Brini M., Pozzan T.; Nature 358 (1992) 325-327). In addition, the cells are stably transfected with the human or rat V1a or V2 receptors. In the case of the Gs-coupling V2 receptors, the cells are stably transfected with a further gene, which codes for the promiscuous Gα16 protein (Amatruda T. T., Steele D. A., Slepak V. Z., Simon M. I., Proc. Nat. Acad. Sci. USA 88 (1991), 5587-5591), either independently or as a fusion gene. The resulting vasopressin receptor test cells react to stimulation of the recombinantly expressed vasopressin receptors by intracellular release of calcium ions, which can be quantified by the resulting aequorin luminescence using a suitable luminometer (Milligan G., Marshall F., Rees S., Trends in Pharmaco. Sci. 17 (1996) 235-237).
(§2) Test procedure: On the day before the assay, the cells are plated out in culture medium (DMEM, 10% FCS, 2 mM glutamine, 10 mM HEPES) in 384-well microtiter plates and kept in a cell incubator (96% humidity, 5% v/v carbon dioxide, 37° C.). On the day of the assay, the culture medium is replaced by a Tyrode solution (140 mM sodium chloride, 5 mM potassium chloride, 1 mM magnesium chloride, 2 mM calcium chloride, 20 mM glucose, 20 mM HEPES), which additionally contains the cofactor coelenterazine (50 μM), and the microtiter plate is then incubated for a further 3-4 hours. The test substances in various concentrations are placed for 10 to 20 minutes in the wells of the microtiter plate before the agonist [Arg8]-vasopressin is added, and the resulting light signal is measured immediately in the luminometer. The IC50 values are calculated using the GraphPad PRISM computer program (Version 3.02).
(§3) The table below lists representative IC50 values for the compounds of the invention on the cell line transfected with the human V1a or V2 receptor: […]

[2] = target: T2, human V1a receptor (Homo sapiens, UniProt P37288); experiment: Cellular in vitro assay for vasopressin receptor activity (aequorin luminescence, CHO K1 cells), hV1a; type: cell-based; settings: CHO cell line transfected with human V1a receptor, agonist [Arg8]-vasopressin
T2 construct: expressed in transfected cells; host or cells: CHO K1 (ATCC), constitutively expressing modified aequorin
From the text: as §1, §2, §3

T1 sequence (P30518 whole entry): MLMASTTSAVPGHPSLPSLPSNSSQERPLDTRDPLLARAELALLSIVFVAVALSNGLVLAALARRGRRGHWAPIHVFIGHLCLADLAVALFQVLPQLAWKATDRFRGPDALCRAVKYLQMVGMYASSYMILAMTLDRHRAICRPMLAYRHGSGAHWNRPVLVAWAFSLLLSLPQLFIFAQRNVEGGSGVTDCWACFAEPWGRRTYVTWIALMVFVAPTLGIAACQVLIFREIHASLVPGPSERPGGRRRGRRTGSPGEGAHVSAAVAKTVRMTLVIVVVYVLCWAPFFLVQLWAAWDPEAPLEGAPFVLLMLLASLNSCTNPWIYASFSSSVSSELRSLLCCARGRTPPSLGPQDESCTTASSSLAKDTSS
T2 sequence (P37288 whole entry): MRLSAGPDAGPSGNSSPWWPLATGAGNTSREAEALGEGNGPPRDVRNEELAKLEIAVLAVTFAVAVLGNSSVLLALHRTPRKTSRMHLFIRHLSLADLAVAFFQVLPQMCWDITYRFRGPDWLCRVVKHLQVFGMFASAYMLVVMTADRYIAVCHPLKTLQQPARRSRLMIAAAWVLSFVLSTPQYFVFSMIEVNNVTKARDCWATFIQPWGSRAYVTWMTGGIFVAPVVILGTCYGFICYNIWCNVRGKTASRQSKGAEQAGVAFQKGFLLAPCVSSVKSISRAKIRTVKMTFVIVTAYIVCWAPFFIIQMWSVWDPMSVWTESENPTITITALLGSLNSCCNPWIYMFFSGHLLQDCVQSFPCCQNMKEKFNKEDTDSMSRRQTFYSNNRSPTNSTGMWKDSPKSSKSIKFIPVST

Row | Compound | IC50 [1] | IC50 [2]
1 | CC(NC(=O)Cn1nc(-c2ccc(Cl)cc2)n(C[C@H](O)C(F)(F)F)c1=O)(C(=O)O)c1cccc(C(F)(F)F)c1 (stereo partly drawn) [Example 1, 2-[({3-(4-Chlorophenyl)-5-oxo-4-[(2S)-3,3,3-trifluoro-2-hydroxypropyl]-4,5-dihydro-1H-1,2,4-triazol-1-yl}acetyl)amino]-2-[3-(trifluoromethyl)phenyl]propanoic acid] | 12 nM | 118 nM
2 | CCC(NC(=O)Cn1nc(-c2ccc(Cl)cc2)n(C[C@H](O)C(F)(F)F)c1=O)(C(N)=O)c1cccc(C(F)(F)F)c1 (single isomer, unassigned) [Example 14] | 6.4 nM | 6 nM
3 | C[C@](NC(=O)Cn1nc(-c2ccc(Cl)cc2)n(C[C@H](O)C(F)(F)F)c1=O)(C(N)=O)c1ccccc1Cl [Example 17, (2R)-2-(2-Chlorophenyl)-2-[({3-(4-chlorophenyl)-5-oxo-4-[(2S)-3,3,3-trifluoro-2-hydroxypropyl]-4,5-dihydro-1H-1,2,4-triazol-1-yl}acetyl)amino]propanamide] | 220 nM | 12 nM

Further compounds by falling IC50 [1], results first:

Row | IC50 [1] | IC50 [2] | Compound
4 | 28 nM | 106 nM | C[C@@](NC(=O)Cn1nc(-c2ccc(Cl)cc2)n(C[C@H](O)C(F)(F)F)c1=O)(C(N)=O)c1cccc(C(F)(F)F)c1 [Example 3, (2S)-2-[({3-(4-Chlorophenyl)-5-oxo-4-[(2S)-3,3,3-trifluoro-2-hydroxypropyl]-4,5-dihydro-1H-1,2,4-triazol-1-yl}acetyl)amino]-2-[3-(trifluoromethyl)phenyl]propanamide]
5 | 16 nM | 6 nM | CC(NC(=O)Cn1nc(-c2ccc(Cl)cc2)n(Cc2ccccc2F)c1=O)(C(N)=O)c1cccc(C(F)(F)F)c1 (single isomer, unassigned) [Example 25, 2-({[3-(4-Chlorophenyl)-4-(2-fluorobenzyl)-5-oxo-4,5-dihydro-1H-1,2,4-triazol-1-yl]acetyl}amino)-2-[3-(trifluoromethyl)phenyl]propanamide]
6 | 14 nM | 13 nM | C[C@](NC(=O)Cn1nc(-c2ccc(Cl)cc2)n(/C=C/C(F)(F)F)c1=O)(C(N)=O)c1cccc(C(F)(F)F)c1 [Example 19, (2R)-2-[({3-(4-Chlorophenyl)-5-oxo-4-[(1E)-3,3,3-trifluoroprop-1-en-1-yl]-4,5-dihydro-1H-1,2,4-triazol-1-yl}acetyl)amino]-2-[3-(trifluoromethyl)phenyl]propanamide]
7 | 3.7 nM | 2.2 nM | C[C@](NC(=O)Cn1nc(-c2ccc(Cl)cc2)n(C[C@H](O)C(F)(F)F)c1=O)(C(N)=O)c1cccc(C(F)(F)F)c1 [Example 4, (2R)-2-[({3-(4-Chlorophenyl)-5-oxo-4-[(2S)-3,3,3-trifluoro-2-hydroxypropyl]-4,5-dihydro-1H-1,2,4-triazol-1-yl}acetyl)amino]-2-[3-(trifluoromethyl)phenyl]propanamide]
